Results as given in US9326945B2, “Apixaban formulations” (Bristol-Myers Squibb Company, priority 2010, dated 2016).
≈ marks a conversion by molar mass, not a printed value.

How the values were obtained:
[1] = Contact angle of apixaban drug substance with water; type: physicochemical
[2] = Aqueous solubility of apixaban; type: physicochemical

contact angle [1]: 54 ° | dose/solubility ratio ([2]; 10 mg apixaban dose): 250 mL | solubility ([2]; aqueous medium, at all physiological pH): 40 µg/mL (≈ 87.1 µM)
SMILES: COc1ccc(-n2nc(C(N)=O)c3c2C(=O)N(c2ccc(N4CCCCC4=O)cc2)CC3)cc1 [apixaban, 4,5,6,7-tetrahydro-1-(4-methoxyphenyl)-7-oxo-6-[4-(2-oxo-1-piperidinyl)phenyl]-1H-pyrazolo[3,4-c]pyridine-3-carboxamide]
